Converted amounts (≈) assume the structure as drawn. Read-outs that look alike come from different tables or passages of the source.
Tests used:
[1] = Solubility of Form I and free base compound 4-3 (visual and HPLC assay of filtrate); assay type: physicochemical; settings: for solubility at 24 h: thermodynamic from solid; for solubility at 24 h / HPLC Solubility / Visual Solubility (observation in words): target conc. 2.0 mg/mL; for pH (Filtrated): filtrate of solubility sample
Experimental: Solubility of Form I as well as the free base compound 4-3 was tested. Solubility was measured by placing a small quantity of the compound to be analyzed in a glass vial, capping and rotating the vial overnight at ambient conditions (24 hours). Target concentration was 2.0 mg/mL. The samples were filtrated with 0.45-μm filters. The subsequent filtrate was collected for HPLC assay. HPLC conditions are shown in Table 10 in Appendix A. Solubility for Form I is shown in Table 11 and for the free base compound 4-3 is shown in Table 12 in Appendix A. [table]

[2] = Solubility of Form A (aliquot addition / slurry, visual); assay type: physicochemical
Experimental: Aliquots of various solvents were added to measured amounts of Form A with agitation (typically sonication) at ambient or elevated temperatures until completedissolution was achieved, as judged by visual observation. […] Samples were left to slurry at ambient and elevated temperatures for several days; however, no further dissolution was observed.

[3] = PK study of Form A of Compound I in dogs; assay type: in vivo; settings: PO dose of 75 mg/kg
Experimental: The pharmacokinetics (PK) properties of Form A of Compound I and Form I of Compound II were determined in a series of comprehensive experiments in preclinical species including Sprague-Dawley rats, beagle dogs, cynomolgus monkeys. In those studies, the Form A crystalline salt of Compound I (and Form I crystalline salt of Compound II) was formulated in saline, 0.5% MC in saline or other commonly used suitable formulation vehicles to give a clear solution or as a suspension or a paste depending on the concentration intended to reach and the choice of vehicles. Dosing was by oral gavage. Blood samples were drawn and placed into individual tube containing K2EDTA. Blood samples were put on ice and centrifuged (2000 g for 5 minutes at 4° C.) to obtain plasma within 15 minutes after collection. Plasma samples were stored at approximately −80° C. freezer until analysis. For most of these analyses, Compound I (and Compound II) and the internal standard (IS) were extracted from rat, monkey or dog plasma by protein precipitation, and the extract was evaporated, reconstituted and analyzed using HPLC with tandem mass spectrometric detection (HPLC-MS/MS), see examples for further details. Calibration was accomplished by weighted linear regression of the ratio of the peak area of analyte to that of the added internal standard (IS). For the validated assay in rat and monkey EDTA plasma, the Lower Limit of Quantitation (LLOQ) for both compound 1 and 2 was 5.00 ng/mL, and the assay was linear from 5.00-1,000 ng/mL. PK parameters were calculated by non-compartmental analysis using WinNonlin (versions 4.1 through 6.1). Non-naïve Beagle Dog, 8.0-9.5 kg were used in the study. The dosing solution was prepared by dissolving 1.90 g of Form A of Compound I (1.67 g free base equivalent) in 222.237 mL of 0.5% MC and vortexed for 20 min, sonicated for 2 min to obtain a colorless clear solution. The animals were restrained manually, and approx. 0.6-1 mL blood/time point was collected from cephalic or saphenous veins into pre-cooled EDTA tubes. Blood samples were put on ice and centrifuged at 4° C. to obtain plasma within 30 minutes of sample collection. […] 5 μL of the supernatant was injected for LC-MS/MS analysis. • For dilution samples: • An aliquot of 10 μL plasma sample was added with 90 μL blank Beagle dog plasma. The dilution factor was 10. An aliquot of 30 μL dilution plasma was added with 200 μL IS in ACN (testosterone as IS, 100.0 ng/mL), the mixture was vortexed for 2 min and centrifuged at 12000 rpm for 5 min. 5 μL of the supernatant was injected for LC-MS/MS analysis.

[4] = beagle, dog, plasma, po, 75 mg/kg, Dog #1, read-out: plasma concentration
[5] = beagle, dog, plasma, po, 75 mg/kg, Dog #2, read-out: plasma concentration
[6] = beagle, dog, plasma, po, 75 mg/kg, Mean, read-out: mean plasma concentration

SMILES: CC[C@H](C)[C@H](NC(=O)OC)C(=O)N1CCC[C@H]1c1nc2ccc(-c3ccc4cc(-c5cnc([C@@H]6CCCN6C(=O)[C@@H](NC(=O)OC)[C@@H](C)OC)[nH]5)ccc4c3)cc2[nH]1 [Form I of Compound II]
- solubility at 24 h ([1]; 0.1N HCl, simulated gastric fluid, 0.1N HCl, 24 hours ambient, 0.45-μm filtrate, read-out: HPLC Solubility): 2070 µg/mL (≈ 2610 µM)
- solubility at 24 h ([1]; 0.1N HCl, simulated gastric fluid, 0.1N HCl, read-out: Visual Solubility): > 2000 µg/mL
- pH (Filtrated) ([1]; 0.1N HCl, listed as Form I): 1.00
- pH (Filtrated) ([1]; Water, listed as Form I): 3.45
- HPLC Solubility ([1]; Water, 24 hours ambient, 0.45-μm filtrate, listed as Form I): 2036 µg/mL
- solubility at 24 h ([1]; pH 2 medium, pH 2, simulated gastric fluid, pH 2 medium, 24 hours ambient, 0.45-μm filtrate, read-out: HPLC Solubility): 2050 µg/mL (≈ 2590 µM)
- solubility at 24 h ([1]; pH 2 medium, pH 2, simulated gastric fluid, pH 2 medium, read-out: Visual Solubility): > 2000 µg/mL
- pH (Filtrated) ([1]; pH 2 medium, listed as Form I): 2.00
- solubility at 24 h ([1]; pH 3 medium, pH 3, aqueous buffer, pH 3 medium, 24 hours ambient, 0.45-μm filtrate, read-out: HPLC Solubility): 2030 µg/mL (≈ 2560 µM)
- solubility at 24 h ([1]; pH 3 medium, pH 3, aqueous buffer, pH 3 medium, read-out: Visual Solubility): > 2000 µg/mL
- pH (Filtrated) ([1]; pH 3 medium, listed as Form I): 2.96
- pH (Filtrated) ([1]; pH 4 medium, listed as Form I): 3.55
- HPLC Solubility ([1]; pH 4 medium, 24 hours ambient, 0.45-μm filtrate, listed as Form I): 1857 µg/mL
- Visual Solubility (observation in words) ([1]; pH 4 medium, listed as Form I): A few
- pH (Filtrated) ([1]; pH 5 medium, listed as Form I): 3.63
- Visual Solubility (observation in words) ([1]; pH 5 medium): Turbid +
- HPLC Solubility ([1]; pH 5 medium, 24 hours ambient, 0.45-μm filtrate, listed as Form I): 1106 µg/mL
- pH (Filtrated) ([1]; pH 6 medium, listed as Form I): 5.44
- Visual Solubility (observation in words) ([1]; pH 6 medium, listed as Form I): Many
- pH (Filtrated) ([1]; pH 7 medium, listed as Form I): 6.86
- Visual Solubility (observation in words) ([1]; pH 7 medium, listed as Form I): Many
- pH (Filtrated) ([1]; pH 8 medium, listed as Form I): 7.58
- Visual Solubility (observation in words) ([1]; pH 8 medium, listed as Form I): Many
- solubility at 24 h ([1]; water, Water, read-out: Visual Solubility): > 2000 µg/mL

SMILES: COC(=O)N[C@H](C(=O)N1CCC[C@H]1c1ncc(-c2ccc3cc(-c4ccc5nc([C@@H]6CCCN6C(=O)[C@@H](NC(=O)OC)C(C)C)[nH]c5c4)ccc3c2)[nH]1)C(C)C [Form A of Compound I]
- Solubility estimate (in words) ([2]; IPA and IPA/MTBE (2/1 (v/v)) mixtures at ambient and elevated temperatures, aliquot addition): poorly soluble
- solubility ([2]; IPA/water (95/5 v/v), organic solvent or mixture, thermodynamic from solid, IPA:H2O (95:5), RT, aliquot addition): 33000 µg/mL (≈ 43300 µM)
- solubility ([2]; organic solvent or mixture, thermodynamic from solid, IPA, RT, aliquot addition): < 3000 µg/mL
- solubility at 4 days ([2]; organic solvent or mixture, thermodynamic from solid, IPA, RT, slurry, 4 days): < 3000 µg/mL
- solubility ([2]; organic solvent or mixture, thermodynamic from solid, IPA, ~60° C., aliquot addition): 2000 µg/mL (≈ 2620 µM)
- solubility at 6 days ([2]; organic solvent or mixture, thermodynamic from solid, IPA, ~60° C., slurry, 6 days): < 6000 µg/mL
- solubility ([2]; organic solvent or mixture, thermodynamic from solid, IPA:tBME (2:1), RT, aliquot addition): < 2000 µg/mL
- solubility at 3 days ([2]; organic solvent or mixture, thermodynamic from solid, IPA:tBME (2:1), RT, slurry): < 2000 µg/mL
- solubility ([2]; organic solvent or mixture, thermodynamic from solid, IPA:tBME (2:1), ~60° C., aliquot addition): < 3000 µg/mL
- solubility at 3 days ([2]; organic solvent or mixture, thermodynamic from solid, IPA:tBME (2:1), ~60° C., slurry): < 3000 µg/mL
- plasma concentration ([3]; Beagle Dog, 0.083 hr, Dog #1): BQL
- concentration at 0.083 hr ([3]; beagle, dog, plasma, po, 75 mg/kg, 0.083 hr, Dog #2, read-out: plasma concentration): 5.92 ng/mL
- concentration at 0.083 hr ([3]; beagle, dog, plasma, po, 75 mg/kg, 0.083 hr, Mean, read-out: mean plasma concentration): 5.92 ng/mL
- concentration at 0.25 h [3, 4]: 267 ng/mL
- concentration at 0.25 h [3, 5]: 374 ng/mL
- concentration at 0.25 h [3, 6]: 320 ng/mL
- concentration at 0.5 h ([3]; beagle, dog, plasma, po, 75 mg/kg, 0.5 hr, Dog #1): 1090 ng/mL
- concentration at 0.5 hr ([3]; beagle, dog, plasma, po, 75 mg/kg, 0.5 hr, Dog #2, read-out: plasma concentration): 952 ng/mL
- concentration at 0.5 hr ([3]; beagle, dog, plasma, po, 75 mg/kg, 0.5 hr, Mean, read-out: mean plasma concentration): 1020 ng/mL
- concentration at 1 hr [3, 4]: 1590 ng/mL
- concentration at 1 hr [3, 5]: 2050 ng/mL
- concentration at 1 hr [3, 6]: 1820 ng/mL
- concentration at 2 hr [3, 4]: 2980 ng/mL
- concentration at 2 hr [3, 5]: 2400 ng/mL
- concentration at 2 hr [3, 6]: 2690 ng/mL
- concentration at 4 hr [3, 4]: 3080 ng/mL
- concentration at 4 hr [3, 5]: 1540 ng/mL
- concentration at 4 hr [3, 6]: 2310 ng/mL
- concentration at 6 hr [3, 4]: 3590 ng/mL
- concentration at 6 hr [3, 5]: 1320 ng/mL
- concentration at 6 hr [3, 6]: 2450 ng/mL
- concentration at 8 hr [3, 4]: 3500 ng/mL
- concentration at 8 hr [3, 5]: 1040 ng/mL
- concentration at 8 hr [3, 6]: 2270 ng/mL
- concentration at 24 hr [3, 4]: 244 ng/mL
- concentration at 24 hr [3, 5]: 2160 ng/mL
- concentration at 24 hr [3, 6]: 1200 ng/mL

Source: patent publication US20150203474A1, “SOLID FORMS COMPRISING INHIBITORS OF HCV NS5A, COMPOSITIONS THEREOF, AND USES THEREWITH” (PRESIDIO PHARMACEUTICALS ,INC., priority 2012, published 2015)
